From the NIST ThermoML archive (doi:10.1021/acs.jced.8b01095)

Experiment: xn = mol fraction of the nth substance listed
Details: Liquid; for viscosity: 2 kPa, Falling or rolling sphere viscometry; for speed of sound / mass density: 100 kPa; for speed of sound: Single path-length method; for mass density: Vibrating tube method

CNc1ccccc1 [N-methylaniline] + CCCCn1cc[n+](C)c1.F[P-](F)(F)(F)(F)F
Details | mass density, 313.15 K [kg/m3] | mass density, 318.15 K [kg/m3] | mass density, 323.15 K [kg/m3] | speed of sound, 313.15 K [m/s] | speed of sound, 318.15 K [m/s] | speed of sound, 323.15 K [m/s] | viscosity, 313.15 K [mPa·s] | viscosity, 318.15 K [mPa·s] | viscosity, 323.15 K [mPa·s]
x2 = 0 | 970.36 | 966.24 | 962.13 | 1511.5 | 1492.8 | 1476.2 | 1.4 | 1.27 | 1.16
x2 = 0.1076 | 1052.12 | 1048.13 | 1044.13 | 1506.7 | 1491.1 | 1473.9 | 2.95 | 2.5 | 2.07
x2 = 0.2146 | 1116.59 | 1112.61 | 1108.64 | 1500.8 | 1488.2 | 1471.7 | 6.01 | 5 | 4.02
x2 = 0.3053 | 1162.35 | 1158.36 | 1154.38 | 1492.6 | 1479.8 | 1466.1 | 9.66 | 7.84 | 6.32
x2 = 0.3985 | 1202.36 | 1198.4 | 1194.44 | 1475.5 | 1462.1 | 1448.8 | 15.49 | 12.02 | 9.48
x2 = 0.4805 | 1231.27 | 1227.29 | 1223.3 | 1458 | 1445.1 | 1432.3 | 22.87 | 17.73 | 13.62
x2 = 0.5766 | 1260.34 | 1256.33 | 1252.31 | 1444.2 | 1431.8 | 1419.6 | 31.76 | 25.05 | 19.75
x2 = 0.6793 | 1287.33 | 1283.28 | 1279.23 | 1432.3 | 1420.3 | 1408.4 | 42.71 | 34.26 | 27.82
x2 = 0.7871 | 1312.75 | 1308.65 | 1304.56 | 1422.2 | 1410.4 | 1398.9 | 57.32 | 46.02 | 37.45
x2 = 0.9009 | 1336.1 | 1331.99 | 1327.88 | 1411.9 | 1400.5 | 1389.2 | 83.73 | 66.23 | 53.14
